Assay results as given in ChEMBL document CHEMBL3045810, “Synthesis and evaluation of 4-(substituted)-acetylamino-3-mercapto-5-(4-substituted) phenyl-1,2,4-triazole derivatives as antimicrobial agents” (2012).
Activity calls are given as the source filed them. The rule behind the calls is not given here.

How the values were obtained:
Escherichia coli [1] = experiment: Antibacterial activity against Escherichia coli ATCC 8793 at 70 ug/ml after 24 hr by paper disk diffusion method; assay type: functional; conditions: ATCC 8793, 24 h, read-out: DIZ
Fusarium oxysporum [2] = experiment: Fungicidal activity against Fusarium oxysporum MTCC 2087; assay type: functional, organism-based
Aspergillus niger [3] = experiment: Fungicidal activity against Aspergillus niger MTCC 3323; assay type: functional, organism-based
Candida albicans [4] = experiment: Fungicidal activity against Candida albicans MTCC 227; assay type: functional, organism-based
Bacillus subtilis [5] = experiment: Bactericidal against Bacillus subtilis ATCC 6633; assay type: functional, organism-based
Staphylococcus aureus [6] = experiment: Antibacterial activity against Staphylococcus aureus ATCC 25923 at 50 ug/ml after 24 hr by paper disk diffusion method; assay type: functional; conditions: ATCC 25923, 24 h, read-out: DIZ
Staphylococcus aureus [7] = experiment: Antibacterial activity against Staphylococcus aureus ATCC 25923 at 70 ug/ml after 24 hr by paper disk diffusion method; assay type: functional; conditions: ATCC 25923, 24 h, read-out: DIZ
Pseudomonas aeruginosa [8] = experiment: Antibacterial activity against Pseudomonas aeruginosa ATCC 27853 at 30 ug/ml after 24 hr by paper disk diffusion method; assay type: functional; conditions: ATCC 27853, 24 h, read-out: DIZ
Pseudomonas aeruginosa [9] = experiment: Antibacterial activity against Pseudomonas aeruginosa ATCC 27853 at 50 ug/ml after 24 hr by paper disk diffusion method; assay type: functional; conditions: ATCC 27853, 24 h, read-out: DIZ
Pseudomonas aeruginosa [10] = experiment: Antibacterial activity against Pseudomonas aeruginosa ATCC 27853 at 70 ug/ml after 24 hr by paper disk diffusion method; assay type: functional; conditions: ATCC 27853, 24 h, read-out: DIZ
Escherichia coli [11] = experiment: Antibacterial activity against Escherichia coli ATCC 8793 at 30 ug/ml after 24 hr by paper disk diffusion method; assay type: functional; conditions: ATCC 8793, 24 h, read-out: DIZ
Escherichia coli [12] = experiment: Antibacterial activity against Escherichia coli ATCC 8793 at 50 ug/ml after 24 hr by paper disk diffusion method; assay type: functional; conditions: ATCC 8793, 24 h, read-out: DIZ
Staphylococcus aureus [13] = experiment: Bactericidal activity against Staphylococcus aureus ATCC 25923; assay type: functional, organism-based
Pseudomonas aeruginosa [14] = experiment: Bactericidal activity against Pseudomonas aeruginosa ATCC 27853; assay type: functional, organism-based
Escherichia coli [15] = experiment: Bactericidal activity against Escherichia coli ATCC 8793; assay type: functional, organism-based
Fusarium oxysporum [16] = experiment: Antifungal activity against Fusarium oxysporum MTCC 2087 at 30 ug/ml by paper disk diffusion method; assay type: functional; conditions: read-out: DIZ
Fusarium oxysporum [17] = experiment: Antifungal activity against Fusarium oxysporum MTCC 2087 at 50 ug/ml by paper disk diffusion method; assay type: functional; conditions: read-out: DIZ
Fusarium oxysporum [18] = experiment: Antifungal activity against Fusarium oxysporum MTCC 2087 at 70 ug/ml by paper disk diffusion method; assay type: functional; conditions: read-out: DIZ
Aspergillus niger [19] = experiment: Antifungal activity against Aspergillus niger MTCC 3323 at 30 ug/ml by paper disk diffusion method; assay type: functional; conditions: read-out: DIZ
Aspergillus niger [20] = experiment: Antifungal activity against Aspergillus niger MTCC 3323 at 50 ug/ml by paper disk diffusion method; assay type: functional; conditions: read-out: DIZ
Aspergillus niger [21] = experiment: Antifungal activity against Aspergillus niger MTCC 3323 at 70 ug/ml by paper disk diffusion method; assay type: functional; conditions: read-out: DIZ
Candida albicans [22] = experiment: Antifungal activity against Candida albicans MTCC 227 at 30 ug/ml by paper disk diffusion method; assay type: functional; conditions: read-out: DIZ
Candida albicans [23] = experiment: Antifungal activity against Candida albicans MTCC 227 at 50 ug/ml by paper disk diffusion method; assay type: functional; conditions: read-out: DIZ
Candida albicans [24] = experiment: Antifungal activity against Candida albicans MTCC 227 at 70 ug/ml by paper disk diffusion method; assay type: functional; conditions: read-out: DIZ
Bacillus subtilis [25] = experiment: Antibacterial activity against Bacillus subtilis ATCC 6633 at 30 ug/ml after 24 hr by paper disk diffusion method; assay type: functional; conditions: ATCC 6633, 24 h, read-out: DIZ
Bacillus subtilis [26] = experiment: Antibacterial activity against Bacillus subtilis ATCC 6633 at 50 ug/ml after 24 hr by paper disk diffusion method; assay type: functional; conditions: ATCC 6633, 24 h, read-out: DIZ
Bacillus subtilis [27] = experiment: Antibacterial activity against Bacillus subtilis ATCC 6633 at 70 ug/ml after 24 hr by paper disk diffusion method; assay type: functional; conditions: ATCC 6633, 24 h, read-out: DIZ
Staphylococcus aureus [28] = experiment: Antibacterial activity against Staphylococcus aureus ATCC 25923 at 30 ug/ml after 24 hr by paper disk diffusion method; assay type: functional; conditions: ATCC 25923, 24 h, read-out: DIZ

Row | Structure (SMILES) | zone of inhibition at 70 µg/mL (Escherichia coli [1]) [mm] | zone of inhibition at 50 µg/mL (Staphylococcus aureus [6]) [mm] | zone of inhibition at 70 µg/mL (Staphylococcus aureus [7]) [mm] | zone of inhibition at 30 µg/mL (Pseudomonas aeruginosa [8]) [mm] | zone of inhibition at 50 µg/mL (Pseudomonas aeruginosa [9]) [mm] | zone of inhibition at 70 µg/mL (Pseudomonas aeruginosa [10]) [mm] | zone of inhibition at 30 µg/mL (Escherichia coli [11]) [mm] | zone of inhibition at 50 µg/mL (Escherichia coli [12]) [mm] | zone of inhibition at 30 µg/mL (Fusarium oxysporum [16]) [mm] | zone of inhibition at 50 µg/mL (Fusarium oxysporum [17]) [mm] | zone of inhibition at 70 µg/mL (Fusarium oxysporum [18]) [mm] | zone of inhibition at 30 µg/mL (Aspergillus niger [19]) [mm] | zone of inhibition at 50 µg/mL (Aspergillus niger [20]) [mm] | zone of inhibition at 70 µg/mL (Aspergillus niger [21]) [mm] | zone of inhibition at 30 µg/mL (Candida albicans [22]) [mm] | zone of inhibition at 50 µg/mL (Candida albicans [23]) [mm] | zone of inhibition at 70 µg/mL (Candida albicans [24]) [mm] | zone of inhibition at 30 µg/mL (Bacillus subtilis [25]) [mm] | zone of inhibition at 50 µg/mL (Bacillus subtilis [26]) [mm] | zone of inhibition at 30 µg/mL (Staphylococcus aureus [28]) [mm] | also measured
1 | Cc1ccc(-c2nnc(S)n2NC(=O)CN(C(C)C)C(C)C)cc1 | 10.5 | 8.2 | 9.1 | 8.3 | 9.26 | 10.1 | 8.2 | 9.2 | 6.06 | 7.17 | 8.33 | 10.1 | 11 | 12.2 | 8.03 | 9.16 | 10.1 | 7.2 | 8.23 | 7.3 | Activity (Fusarium oxysporum [2]): inactive; Activity (Aspergillus niger [3]): inactive; Activity (Candida albicans [4]): inactive; Activity (Bacillus subtilis [5]): Active; Activity (Staphylococcus aureus [13]): Active; Activity (Pseudomonas aeruginosa [14]): Active; Activity (Escherichia coli [15]): Active; zone of inhibition at 70 µg/mL (Bacillus subtilis [27]): 9.23 mm
2 | CN[C@H](CC(C)C)C(=O)N[C@H]1C(=O)N[C@@H](CC(N)=O)C(=O)N[C@H]2C(=O)N[C@H]3C(=O)N[C@H](C(=O)N[C@H](C(=O)O)c4cc(O)cc(O)c4-c4cc3ccc4O)[C@H](O)c3ccc(c(Cl)c3)Oc3cc2cc(c3O[C@@H]2O[C@H](CO)[C@@H](O)[C@H](O)[C@H]2O[C@H]2C[C@](C)(N)[C@H](O)[C@H](C)O2)Oc2ccc(cc2Cl)[C@H]1O [VANCOMYCIN] | – | – | – | – | – | – | – | – | – | – | – | – | – | – | – | – | – | 17.4 | – | 18.2 | –
3 | CCCCN(C)CC(=O)Nn1c(S)nnc1-c1ccc(OC)cc1 | 9.6 | 11 | 13.5 | 9.2 | 10.4 | 12.2 | 7.2 | 8.63 | 6.16 | 6.26 | 7.23 | 10.6 | 11.1 | 13.2 | 11.1 | 12.2 | 14.2 | 9.27 | 10.2 | 10.2 | Activity (Fusarium oxysporum [2]): Active; Activity (Aspergillus niger [3]): Active; Activity (Candida albicans [4]): Active; Activity (Bacillus subtilis [5]): Active; Activity (Staphylococcus aureus [13]): Active; Activity (Pseudomonas aeruginosa [14]): Active; Activity (Escherichia coli [15]): Active; zone of inhibition at 70 µg/mL (Bacillus subtilis [27]): 11.2 mm
4 | NCC[C@H](O)C(=O)N[C@@H]1C[C@H](N)[C@@H](O[C@H]2O[C@H](CN)[C@@H](O)[C@H](O)[C@H]2O)[C@H](O)[C@H]1O[C@H]1O[C@H](CO)[C@@H](O)[C@H](N)[C@H]1O [AMIKACIN] | – | – | – | 22.1 | – | – | 21.3 | – | – | – | – | – | – | – | – | – | – | – | – | – | –
5 | CCCCN(CCCC)CC(=O)Nn1c(S)nnc1-c1ccc(C)cc1 | 13.2 | 12.1 | 14 | 12.3 | 13.6 | 14.1 | 11.2 | 12.1 | 8.17 | 9.2 | 11.4 | 15.1 | 16.2 | 18 | 11.1 | 12.2 | 13.2 | 10.3 | 11.2 | 11.1 | Activity (Fusarium oxysporum [2]): Active; Activity (Aspergillus niger [3]): Active; Activity (Candida albicans [4]): Active; Activity (Bacillus subtilis [5]): Active; Activity (Staphylococcus aureus [13]): Active; Activity (Pseudomonas aeruginosa [14]): Active; Activity (Escherichia coli [15]): Active; zone of inhibition at 70 µg/mL (Bacillus subtilis [27]): 12.2 mm
6 | CCCN(CCC)CC(=O)Nn1c(S)nnc1-c1ccc(OC)cc1 | 14.2 | 13.2 | 14.8 | 12.2 | 13.2 | 14.1 | 11.1 | 12.2 | 10.2 | 11.1 | 12.2 | 14 | 15.2 | 17 | 12.5 | 13.2 | 15.1 | 10.2 | 11 | 12.7 | Activity (Fusarium oxysporum [2]): Active; Activity (Aspergillus niger [3]): Active; Activity (Candida albicans [4]): Active; Activity (Bacillus subtilis [5]): Active; Activity (Staphylococcus aureus [13]): Active; Activity (Pseudomonas aeruginosa [14]): Active; Activity (Escherichia coli [15]): Active; zone of inhibition at 70 µg/mL (Bacillus subtilis [27]): 12.8 mm
7 | Clc1ccccc1C(c1ccccc1)(c1ccccc1)n1ccnc1 [CLOTRIMAZOLE] | – | – | – | – | – | – | – | – | 19.3 | – | – | 22.6 | – | – | 21.9 | – | – | – | – | – | –
8 | CCCCN(C)CC(=O)Nn1c(S)nnc1-c1ccc(C)cc1 | 9.2 | 8.23 | 9.26 | 8.2 | 9.33 | 10.3 | 7.26 | 8.56 | 6.03 | 7.2 | 8.13 | 7 | 8.26 | 9.17 | 8.16 | 9.23 | 10.1 | 7.43 | 8.2 | 7.4 | zone of inhibition at 70 µg/mL (Bacillus subtilis [27]): 9.23 mm
